# Paper PMC9449670, “Two types of peptides derived from the neurotoxin GsMTx4 inhibit a mechanosensitive potassium channel by modifying the mechanogate” (The Journal of Biological Chemistry, 2022)
# Bridges are numbered along the chain shown (N, C = ends). Where no end group is shown, it is not given here.
# Key:
# [1] = target: T1, stretch-activated BK channel (SAKcaC, SAKca-WT) (Gallus gallus, UniProt Q8AYS8); assay: Single-channel excised inside-out patch clamp of native SAKcaC from ventricular myocytes, peptide backfilled in the pipette; assay type: cell-based, chick; details: for slope factor K^−1 of Po–V relationship (Boltzmann fit): control (no peptide) 25.1 ±1.16; for slope factor K^−1 of Po–V relationship (Boltzmann fit) / V1/2 of Po–V relationship (Boltzmann fit) / channel open probability Po with 50 nM peptide / channel open probability Po with 100 nM peptide / channel open probability Po with 0 nM peptide (control of the dose series) / Hill cofactor of dose–response curve: ventricular myocytes; for V1/2 of Po–V relationship (Boltzmann fit): control (no peptide) −91.5 ± 1.36 mV, n = 6 to 9; for channel open probability Po with 50 nM peptide / channel open probability Po with 100 nM peptide: 25 min following backfilling; for channel open probability Po with 50 nM peptide / channel open probability Po with 100 nM peptide / channel open probability Po with 0 nM peptide (control of the dose series): [Ca2+]i 1 mM, single sample patch
# T1 construct: Native SAKcaCs were recorded from ventricular myocytes; endogenous in cells; host or cells: isolated chick ventricular myocytes
# Procedure: Native SAKcaCs were recorded from ventricular myocytes, which were isolated from chick hearts as described previously ([12], [13], [37]).
# (§1) Single-channel currents for SAKcaC were recorded under the standard excised inside–out patch configuration. Currents were amplified using an A&M amplifier (Model 2400) or an EPC10 patch-clamp amplifier (HEKA Elektronik). Data were filtered at 10 kHz. The standard pipette solution facing the extracellular surface of the patch contained (in millimolar): 145 potassium gluconate, 1 EGTA, 10 Hepes, and 5 glucose, pH 7.4 was adjusted with NaOH. The bath solution facing the cytoplasmic surface of the patch membrane was the same except the [Ca^2+]i concentration used was 1 mM ([13], [38]).
# (§2) In brief, the normal pipette solution was first filled in the tips of the electrodes, and then the same solution containing the peptide was backfilled. […] All experiments were performed with standard inside–out patch configuration at room temperature (22–25 °C).
# (§3) Single-channel conductances of SAKcaC and the STREX-del mutant channel were determined by the slope of current–voltage (I–V) curves, where I–V data could be well fitted with a linear function ([12], [54]). Amplitude histograms were measured in inside–out patches mostly with one to three channels. Histograms were fitted with a Gaussian function using pClampfit software (Molecular Devices Corp.). In the case when only one channel was contained in patches, channel open probability Po (%) was determined simply by driving the total open duration of the sum of the open and closed times in patches as described previously ([51], [55]). When multiple channels were presented in the patch, Po was determined using the area under each peak (aj) at each current level (j) in the histogram along with the number of channels (N):(1) Po=∑j=0n(j∗aj)/n×∑j=0Naj Where N is the channel number in each patch, which was defined from the maximum level observed at a relatively higher voltage of +80 mV under 1 mM [Ca^2+]i.
# [2] = tested on: STREX-del mutant channel (SAKcaC with STREX-exon removed); details: earlier work of the authors; cited from earlier work
# From the text: We next examined whether the two types of peptides function on the mechano-insensitive mutant channel. We have previously identified a mechano-insensitive-mutant (STREX-del) channel, of which the mechanosensor domain (STREX-exon) in SAKcaC was removed ([37], [38]). […] To investigate whether the synthetic short peptides act similarly to GsMTx4, we performed the same experiments to examine the effects of the two types of sh ...
# [3] = tested on: STREX-del mutant channel (SAKcaC with STREX-exon removed); assay: Single-channel inside-out patch clamp of mechano-insensitive STREX-del mutant channel expressed in CHO cells; assay type: cell-based, chick
# From the text: (§4) The SA BK (SAKca) channel (SAKcaC) gene was cloned from the complementary DNA (cDNA) library (GenBank accession number: AB072618) from chick embryonic hearts ([13]); this was further subcloned into mammalian expression vectors (pcDNA 3.1). SAKca STREX (stress axis–regulated exon) deletion mutation (STREX-Del) was verified by sequencing as published previously ([35], [51]). Cloned SAKcaC (SAKca-WT) or STREX-Del mutant cDNAs were transiently transfected in the CHO-K1 cells using the Lipofectamine 2000 Transfection Reagent (Thermo Fisher Scientific) according to the manufacturer’s protocol. To monitor the successfully transfected cells, pEGFP (Clontech Laboratories) was coexpressed with the SAKca-WT or STREX-Del channel cDNA (5:1, w/w). The transfected cells grown on the coverslip were used for patch-clamp recordings. No endogenous BK channel activity was detected in the untransfected CHO-K1 cells. Currents were normally recorded within 1 week after cDNA transfection ([13], [37], [38]).
# Single-channel currents for SAKcaC were recorded under the standard excised inside–out patch configuration. […]
# as §3, with “Histograms were fitted with a Gaussian function using pClampfit software (Molecular Devices Corp.).” left out
# [4] = target: T2, stretch-activated BK channel (SAKcaC) (Gallus gallus, UniProt Q8AYS8); assay: Single-channel excised inside-out patch clamp of SAKcaC expressed in CHO-K1 cells, peptide backfilled in the pipette (extracellular side); assay type: cell-based, chick; details: Vm −80 mV, [Ca2+]i 1 mM
# T2 construct: expressed in transfected cells; host or cells: CHO-K1, transient transfection of pcDNA 3.1 with Lipofectamine 2000; pEGFP co-expressed as a separate marker
# From the text: as §4, §1, §2
# as §3, with “Histograms were fitted with a Gaussian function using pClampfit software (Molecular Devices Corp.).” left out
# [5] = tested on: BK (mSlo1) channel; assay: Macroscopic currents of regular BK (mSlo1) channel in excised inside-out patches from Xenopus laevis oocytes; assay type: cell-based, mouse; details: 10 μM peptide backfilled, 25 min, [Ca2+]i 100 μM, n = 4-6
# Procedure: Macroscopic currents for regular BK (mSlo1) channels were recorded from Xenopus laevis oocytes by using standard excised inside–out patches. mSlo1 cDNA was a gift from the laboratory of Dr Christopher Lingle (Washington University), of which the vector pXMX was designed to promote […] expression ([12], [36], [52]). pClamp (Molecular Devices) was used to drive stimulus protocols and digitize currents as described previously ([51], [53]). The standard pipette (extracellular) solution contains (in millimolar): 140 KMES (methanesulfonate), 20 KOH, 10 Hepes, 2 MgCl2, and pH 7.0. The internal solution contains (in millimolar) 140 KMES, 20 KOH, 10 Hepes, 5 EGTA, and pH 7.0. The free intracellular [Ca^2+]i solution was buffered as described previously ([36], [52]).
# as §2
# T2 sequence (Q8AYS8 1-1195 isoform Q8AYS8-3): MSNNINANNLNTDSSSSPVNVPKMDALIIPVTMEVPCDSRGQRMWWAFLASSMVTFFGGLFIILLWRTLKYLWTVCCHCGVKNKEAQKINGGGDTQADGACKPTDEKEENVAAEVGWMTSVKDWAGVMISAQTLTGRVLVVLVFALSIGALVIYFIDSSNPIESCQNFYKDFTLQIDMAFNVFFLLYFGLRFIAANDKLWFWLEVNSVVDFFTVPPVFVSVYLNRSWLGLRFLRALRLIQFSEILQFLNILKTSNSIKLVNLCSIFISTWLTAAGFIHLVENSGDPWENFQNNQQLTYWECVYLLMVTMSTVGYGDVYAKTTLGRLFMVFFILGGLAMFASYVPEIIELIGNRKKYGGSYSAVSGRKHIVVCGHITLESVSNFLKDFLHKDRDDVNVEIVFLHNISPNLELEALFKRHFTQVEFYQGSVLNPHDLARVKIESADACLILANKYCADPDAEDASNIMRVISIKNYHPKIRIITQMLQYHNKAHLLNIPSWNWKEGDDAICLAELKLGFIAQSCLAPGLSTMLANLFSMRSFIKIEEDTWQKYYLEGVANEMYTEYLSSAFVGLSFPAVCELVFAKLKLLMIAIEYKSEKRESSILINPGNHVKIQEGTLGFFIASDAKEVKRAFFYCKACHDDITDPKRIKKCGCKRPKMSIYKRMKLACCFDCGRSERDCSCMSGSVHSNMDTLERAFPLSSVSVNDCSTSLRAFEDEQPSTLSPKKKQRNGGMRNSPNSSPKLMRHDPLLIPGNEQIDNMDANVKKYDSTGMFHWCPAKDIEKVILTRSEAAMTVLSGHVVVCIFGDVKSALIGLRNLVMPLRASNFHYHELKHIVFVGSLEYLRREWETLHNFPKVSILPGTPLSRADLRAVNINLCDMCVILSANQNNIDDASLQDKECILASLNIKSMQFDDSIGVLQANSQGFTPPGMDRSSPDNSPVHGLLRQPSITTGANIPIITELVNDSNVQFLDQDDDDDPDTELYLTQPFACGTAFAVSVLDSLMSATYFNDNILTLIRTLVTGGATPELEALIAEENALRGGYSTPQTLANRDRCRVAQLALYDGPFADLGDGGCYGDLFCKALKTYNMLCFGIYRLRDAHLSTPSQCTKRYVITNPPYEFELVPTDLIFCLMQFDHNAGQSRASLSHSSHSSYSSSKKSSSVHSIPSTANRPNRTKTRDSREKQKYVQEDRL
# T1 sequence (Q8AYS8 1-1195 isoform Q8AYS8-3): as above
Substance,slope factor K^−1 of Po–V relationship (Boltzmann fit) ([1]; 50 nM peptide),V1/2 of Po–V relationship (Boltzmann fit) ([1]; 50 nM peptide),channel open probability Po with 50 nM peptide ([1]; Vm −50 mV),channel open probability Po with 100 nM peptide ([1]; Vm −50 mV),channel open probability Po with 0 nM peptide (control of the dose series) ([1]; Vm −50 mV),Hill cofactor of dose–response curve ([1]; Vm −50 mV),"effect on STREX-del channel, in words [2]","inhibition of SAKcaC Po at +30 mV ([1]; 50 nM peptide, Vm +30 mV)","inhibition of SAKcaC Po at −50 mV ([1]; 50 nM peptide, Vm −50 mV)","inhibition of SAKcaC at depolarized condition, in words ([1]; 10 μM peptide, Vm +30 mV)","effect on STREX-del mutant channel, in words ([3]; 10 μM peptide backfilled, −60 mV (Pept 02 also +30 mV), up to 25–30 min)","V1/2 of Po–V relationship of STREX-del (Boltzmann fit) ([3]; 10 μM peptide, Po 25 min following backfilling, control (no peptide) −9.2 ± 2.3 mV, n = 4 to 9)","slope factor K^−1 of Po–V relationship of STREX-del ([3]; 10 μM peptide, control (no peptide) 23.3 ± 2.8)","inhibitory effect on SAKcaC, in words ([4]; 5 μM peptide backfilled)","averaged diffusion/inhibitory rate (τ), single-exponential fit of Po time course ([4]; 5 μM peptide, mean ± SEM, at least four experiments, SEM)","channel open probability Po at 16 min following backfilling ([4]; 5 μM peptide, single sample patch)","channel open probability Po before peptide reaches the membrane (0 peptide, 2 min after backfilling) ([4]; baseline of the same patch, 5 μM peptide backfilled, 22–25 °C, single sample patch)","effect on regular BK (mSlo1) channel, in words [5]"
"GsMTx4 (GCLEFWWKCNPNDDKCCRPKLKCSKLFKLCNFSF; disulfide (positions not given here); ends not checked; UniProt Q7YT39 47-80, looked up) [reference compound]",24.5 ± 1.63,−47.2 ± 0.97 mV,47.1%,13.8%,73.6%,1.6 ± 0.47,without effect,,,,,,,,,,,
"WKCNPNDDKC (disulfide 3-10 (inferred)) [Pept 02, 10-residue type II peptide derived from loop2 of GsMTx4]",22.9 ± 1.11,−23.7 ± 1.06 mV,22.1%,6.8%,72.5%,1.8 ± 0.52,,~10.3%,~71.3%,completely inhibited,not significantly altered,−5.7 ± 2.6 mV,22.5 ± 2.1,enhanced inhibition (%),2.89 ± 0.16 min,3.6%,42.9%,failed to inhibit
